According to ChEMBL document CHEMBL1201862, “PubChem BioAssay data set” (2004):
Active and inactive are the calls of the source.

Tests used:
Assay type in all cases: functional
[1] = Luminescent dose response cell-based high throughput screening assay for inhibitors of the Janus kinase 2 mutant JAK2V617F. [Related pubchem assays: 1446 (Primary screen.), 1521 (Confirmation assay.), 1486 (Counter screen.)]
[2] = Intein inhibitors as potential Tuberculosis drugs, a cytotoxicity screen. [Related pubchem assays (depositor defined):AID2221, AID2223, AID434968, AID435010, AID449749, AID449750, AID489010]
[3] = biological target: T1, Replicative DNA helicase DnaB (Mycobacterium tuberculosis, UniProt P9WMR3); test: DnaB intein splicing inhibitors, dose response, biochemical, cell-free fluorescence (AID 449749)
T1 sequence (P9WMR3 whole entry): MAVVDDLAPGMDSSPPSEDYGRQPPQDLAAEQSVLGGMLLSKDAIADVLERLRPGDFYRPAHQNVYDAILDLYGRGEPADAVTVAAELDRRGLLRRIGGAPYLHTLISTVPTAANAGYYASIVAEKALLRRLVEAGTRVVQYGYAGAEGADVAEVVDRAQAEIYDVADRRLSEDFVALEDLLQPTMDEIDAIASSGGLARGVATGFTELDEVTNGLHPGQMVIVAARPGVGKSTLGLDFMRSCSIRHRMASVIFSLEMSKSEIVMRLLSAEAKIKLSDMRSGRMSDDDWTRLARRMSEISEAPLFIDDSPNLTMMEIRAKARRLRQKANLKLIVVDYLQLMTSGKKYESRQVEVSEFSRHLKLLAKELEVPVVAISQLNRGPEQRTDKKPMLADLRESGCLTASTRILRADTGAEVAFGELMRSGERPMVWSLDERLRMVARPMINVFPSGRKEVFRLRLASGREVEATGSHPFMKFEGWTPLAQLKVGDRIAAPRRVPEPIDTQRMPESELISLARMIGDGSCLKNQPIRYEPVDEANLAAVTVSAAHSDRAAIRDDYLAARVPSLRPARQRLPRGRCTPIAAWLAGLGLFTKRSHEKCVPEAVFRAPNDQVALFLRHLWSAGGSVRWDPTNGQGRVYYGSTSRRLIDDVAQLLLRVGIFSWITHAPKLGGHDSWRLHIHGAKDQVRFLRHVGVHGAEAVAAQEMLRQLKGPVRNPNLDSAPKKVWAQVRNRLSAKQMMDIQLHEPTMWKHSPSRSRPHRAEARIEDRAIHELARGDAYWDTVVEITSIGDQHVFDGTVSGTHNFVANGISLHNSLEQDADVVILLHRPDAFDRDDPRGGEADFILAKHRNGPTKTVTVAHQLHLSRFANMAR

Protein RecA = biological target: T2, Protein RecA (Mycobacterium tuberculosis, UniProt P9WHJ3); test: Fluorescence Cell-Free Homogeneous Dose Retest to Identify Inhibitors of RecA-Intein Splicing Activity. [Related pubchem assays (depositor defined):AID2097, AID2223, AID489010, AID492950]
T2 sequence (P9WHJ3 whole entry): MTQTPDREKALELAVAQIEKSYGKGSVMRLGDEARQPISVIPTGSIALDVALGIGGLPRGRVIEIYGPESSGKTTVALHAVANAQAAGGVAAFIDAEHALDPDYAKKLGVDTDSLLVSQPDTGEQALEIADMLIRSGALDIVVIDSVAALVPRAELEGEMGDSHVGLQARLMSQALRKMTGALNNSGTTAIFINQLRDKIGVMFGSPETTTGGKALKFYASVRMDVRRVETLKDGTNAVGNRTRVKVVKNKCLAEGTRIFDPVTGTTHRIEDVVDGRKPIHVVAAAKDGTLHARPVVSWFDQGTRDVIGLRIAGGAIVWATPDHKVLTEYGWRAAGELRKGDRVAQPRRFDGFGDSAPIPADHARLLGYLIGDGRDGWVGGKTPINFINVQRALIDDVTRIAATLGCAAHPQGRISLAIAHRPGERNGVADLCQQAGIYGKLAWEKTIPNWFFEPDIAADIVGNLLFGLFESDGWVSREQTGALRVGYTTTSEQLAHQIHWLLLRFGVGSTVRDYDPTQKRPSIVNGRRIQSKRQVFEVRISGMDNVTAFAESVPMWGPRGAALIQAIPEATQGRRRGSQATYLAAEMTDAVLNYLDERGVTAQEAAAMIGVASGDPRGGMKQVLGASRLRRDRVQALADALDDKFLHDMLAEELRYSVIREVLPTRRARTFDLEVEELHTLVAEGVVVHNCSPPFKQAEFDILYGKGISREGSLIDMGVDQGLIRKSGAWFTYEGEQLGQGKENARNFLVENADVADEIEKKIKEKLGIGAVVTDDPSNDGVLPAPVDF

[4] = toxicity toward cultured mammalian cells – cell-based, plate reader, cherry-pick samples, cytotoxicity control, dose response (AID 504397)
[5] = biological target: T3, Kappa-type opioid receptor (Homo sapiens, UniProt P41145); test: SAR analysis of small molecule agonists of the kappa opioid receptor via a luminescent beta-arrestin assay - Set 3. [Related pubchem assays (depositor defined):AID1777, AID1785, AID1786, AID1966, AID2133, AID2136, AID2284, AID2500]
[6] = biological target: T3, Kappa-type opioid receptor; test: kappa opioid receptor activation by imaging – image-based, set 3, SAR follow-up (AID 488833)
[7] = biological target: Delta-type opioid receptor (Homo sapiens, UniProt P41143); test: SAR Analysis of Agonists of the DOR Receptor using an Image-Based Assay - Set 3. [Related pubchem assays (depositor defined):AID1777, AID1786]
Mu-type opioid receptor = Mu-type opioid receptor (Homo sapiens, UniProt P35372); test: SAR Analysis of Agonists of the MOR Receptor using an Image-Based Assay - Set 3. [Related pubchem assays (depositor defined):AID1777, AID1785, AID1786, AID1966, AID2133, AID2136, AID2284, AID2285, AID2352]
Cannabinoid receptor 1 [8] = biological target: T4, Cannabinoid receptor 1 (Homo sapiens, UniProt P21554); test: SAR analysis of agonists of the Cannabinoid Receptor 1 using an Image-Based Assay - Set 4. [Related pubchem assays (depositor defined):AID2013, AID2026]
Cannabinoid receptor 1 [9] = biological target: T4, Cannabinoid receptor 1; test: SAR analysis of antagonists of the Cannabinoid Receptor 1 using an Image-Based Assay - Set 4. [Related pubchem assays (depositor defined):AID2013, AID2026]
[10] = biological target: T5, G-protein coupled receptor 35 (Homo sapiens, UniProt Q9HC97); test: SAR analysis of Antagonists of the GPR35 Receptor using an Image-Based Assay - Set 6. [Related pubchem assays (depositor defined):AID2013, AID2026]
[11] = biological target: T5, G-protein coupled receptor 35; test: SAR analysis of Agonists of the GPR35 Receptor using an Image-Based Assay - Set 4. [Related pubchem assays (depositor defined):AID2013, AID2026]
Cannabinoid receptor 2 [12] = biological target: T6, Cannabinoid receptor 2 (Homo sapiens, UniProt P34972); test: SAR analysis of agonists of the Cannabinoid Receptor 2 using an Image-Based Assay - Set 3. [Related pubchem assays (depositor defined):AID2013, AID2026]
Cannabinoid receptor 2 [13] = biological target: T6, Cannabinoid receptor 2; test: SAR analysis of antagonists of the Cannabinoid Receptor 2 using an Image-Based Assay - Set 3. [Related pubchem assays (depositor defined):AID2013, AID2026]
[14] = biological target: G-protein coupled receptor 55 (Homo sapiens, UniProt Q9Y2T6); test: SAR Analysis of Selective Antagonists of GPR55 using an Image-Based Assay - Set 4. [Related pubchem assays (depositor defined):AID2013, AID2026];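 note: antagonism of response to 5 µM lysophosphatidylinositol agonist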
[15] = biological target: T7, Type-1 angiotensin II receptor (Homo sapiens, UniProt P30556); test: agonist activity at AGTR1 – cell-based, uHTS hits, selectivity assay for APJ receptor agonist project, dose response (AID 488865);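 note: beta-arrestin recruitment to AT1 measured by enzyme fragment complementation luminescence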
T7 sequence (P30556 whole entry): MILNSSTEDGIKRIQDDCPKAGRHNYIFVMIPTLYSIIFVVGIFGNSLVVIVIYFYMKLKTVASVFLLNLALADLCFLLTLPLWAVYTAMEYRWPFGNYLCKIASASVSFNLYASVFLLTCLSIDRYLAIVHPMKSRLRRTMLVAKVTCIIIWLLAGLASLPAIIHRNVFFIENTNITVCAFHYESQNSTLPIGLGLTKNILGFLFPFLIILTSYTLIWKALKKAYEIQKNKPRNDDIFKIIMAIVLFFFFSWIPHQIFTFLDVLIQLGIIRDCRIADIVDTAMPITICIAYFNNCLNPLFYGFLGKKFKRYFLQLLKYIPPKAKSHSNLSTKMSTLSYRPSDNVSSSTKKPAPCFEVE
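Throughout, for CC50: cells exposed to compound for 72 hours before luminescence readout.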

T5 sequence (Q9HC97 whole entry): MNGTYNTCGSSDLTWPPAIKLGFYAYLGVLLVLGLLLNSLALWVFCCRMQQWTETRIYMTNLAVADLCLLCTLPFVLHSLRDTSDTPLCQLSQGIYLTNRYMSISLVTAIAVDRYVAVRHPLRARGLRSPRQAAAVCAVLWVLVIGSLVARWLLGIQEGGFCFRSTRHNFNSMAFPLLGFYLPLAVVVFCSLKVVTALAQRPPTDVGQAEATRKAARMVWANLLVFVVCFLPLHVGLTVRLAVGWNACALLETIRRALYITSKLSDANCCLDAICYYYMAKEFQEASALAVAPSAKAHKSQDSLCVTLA
T3 sequence (P41145 whole entry): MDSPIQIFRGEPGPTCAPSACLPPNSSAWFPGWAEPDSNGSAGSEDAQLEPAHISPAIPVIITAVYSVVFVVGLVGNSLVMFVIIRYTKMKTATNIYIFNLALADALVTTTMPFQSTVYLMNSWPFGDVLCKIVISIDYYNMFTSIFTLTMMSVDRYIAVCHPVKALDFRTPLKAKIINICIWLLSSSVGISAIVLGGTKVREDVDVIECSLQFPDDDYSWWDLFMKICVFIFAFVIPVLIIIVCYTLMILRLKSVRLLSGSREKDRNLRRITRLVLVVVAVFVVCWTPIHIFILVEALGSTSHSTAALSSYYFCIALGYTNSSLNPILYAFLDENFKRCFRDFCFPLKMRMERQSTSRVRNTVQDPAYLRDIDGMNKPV
T6 sequence (P34972 whole entry): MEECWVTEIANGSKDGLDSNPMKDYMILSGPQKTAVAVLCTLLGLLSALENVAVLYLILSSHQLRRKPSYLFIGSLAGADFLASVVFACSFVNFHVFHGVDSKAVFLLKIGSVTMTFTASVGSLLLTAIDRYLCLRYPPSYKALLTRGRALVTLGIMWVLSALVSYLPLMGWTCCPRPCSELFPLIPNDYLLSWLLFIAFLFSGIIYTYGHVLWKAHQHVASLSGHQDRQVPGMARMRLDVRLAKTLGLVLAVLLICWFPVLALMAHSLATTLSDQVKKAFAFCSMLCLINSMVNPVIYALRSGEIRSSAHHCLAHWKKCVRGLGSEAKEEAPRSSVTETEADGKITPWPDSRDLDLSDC
T4 sequence (P21554 whole entry): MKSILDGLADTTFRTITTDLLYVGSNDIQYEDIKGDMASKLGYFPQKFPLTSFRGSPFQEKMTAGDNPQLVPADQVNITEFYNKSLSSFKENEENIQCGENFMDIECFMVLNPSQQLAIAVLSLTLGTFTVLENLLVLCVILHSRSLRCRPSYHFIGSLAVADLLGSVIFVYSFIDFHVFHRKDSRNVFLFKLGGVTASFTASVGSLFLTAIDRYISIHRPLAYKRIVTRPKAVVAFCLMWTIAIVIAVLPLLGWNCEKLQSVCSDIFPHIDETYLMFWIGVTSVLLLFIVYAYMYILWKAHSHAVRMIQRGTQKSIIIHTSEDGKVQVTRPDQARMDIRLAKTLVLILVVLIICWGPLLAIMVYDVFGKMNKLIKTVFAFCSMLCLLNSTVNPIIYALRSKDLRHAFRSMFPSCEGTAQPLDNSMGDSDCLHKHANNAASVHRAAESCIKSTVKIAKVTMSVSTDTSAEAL
Delta-type opioid receptor, sequence (P41143 whole entry): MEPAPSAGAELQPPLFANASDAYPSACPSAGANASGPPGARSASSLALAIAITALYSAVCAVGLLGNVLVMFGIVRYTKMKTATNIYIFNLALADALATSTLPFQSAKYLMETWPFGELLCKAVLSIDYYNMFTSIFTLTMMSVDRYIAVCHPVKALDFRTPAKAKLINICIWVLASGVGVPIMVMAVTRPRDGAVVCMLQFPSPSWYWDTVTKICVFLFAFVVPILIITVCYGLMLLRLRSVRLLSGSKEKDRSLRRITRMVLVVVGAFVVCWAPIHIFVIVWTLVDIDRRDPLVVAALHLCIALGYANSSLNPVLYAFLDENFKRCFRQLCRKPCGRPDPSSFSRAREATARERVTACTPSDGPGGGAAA
Mu-type opioid receptor, sequence (P35372 whole entry): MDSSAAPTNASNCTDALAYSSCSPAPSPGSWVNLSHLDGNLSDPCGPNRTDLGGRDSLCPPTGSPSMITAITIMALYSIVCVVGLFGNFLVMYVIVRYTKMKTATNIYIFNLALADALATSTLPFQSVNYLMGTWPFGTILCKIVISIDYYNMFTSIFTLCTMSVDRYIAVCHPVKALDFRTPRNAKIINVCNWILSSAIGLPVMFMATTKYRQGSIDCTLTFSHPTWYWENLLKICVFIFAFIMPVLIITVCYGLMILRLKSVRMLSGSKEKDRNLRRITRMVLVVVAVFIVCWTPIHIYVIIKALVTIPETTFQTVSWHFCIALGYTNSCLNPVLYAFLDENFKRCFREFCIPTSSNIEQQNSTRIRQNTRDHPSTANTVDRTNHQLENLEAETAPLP
G-protein coupled receptor 55, sequence (Q9Y2T6 whole entry, the tested form may be a part): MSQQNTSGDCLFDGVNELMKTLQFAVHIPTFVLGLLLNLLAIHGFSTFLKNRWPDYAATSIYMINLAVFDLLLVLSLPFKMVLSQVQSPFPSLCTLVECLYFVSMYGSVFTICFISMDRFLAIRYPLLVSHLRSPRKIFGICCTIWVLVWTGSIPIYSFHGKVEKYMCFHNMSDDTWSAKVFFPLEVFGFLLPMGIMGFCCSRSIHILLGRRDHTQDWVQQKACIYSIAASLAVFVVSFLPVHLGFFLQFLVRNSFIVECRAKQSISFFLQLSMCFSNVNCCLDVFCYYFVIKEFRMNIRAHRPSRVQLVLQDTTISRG

In the case of `Cc1ccc(C)c(Sc2ccc(NC(=O)CCl)cc2)c1`, the IC50 [1] is reported as 743 nM (active), the CC50 [2] is reported as 7.6 µM (active) and the AC50 [3] is reported as 2.3 µM (active). The EC50 (Protein RecA) was 602 nM (active).
With `O=C(Nc1ccccc1N1CCOCC1)C1CCN(S(=O)(=O)c2ccc(F)cc2)CC1` the AC50 [4] was > 350 µM (inactive).
With `FC(F)(F)c1cc(CSc2nnc(-c3ccccn3)n2Cc2cccs2)ccc1Cl` the EC50 [5] was 432 nM (active), the EC50 [6] was 1.38 µM (active) and the EC50 [7] was > 32 µM (inactive). The EC50 (Mu-type opioid receptor) was > 32 µM (inactive).
In the case of `Cc1nnc(-c2ccccc2)c2cn(-c3ccc(Cl)cc3)nc12`, the EC50 (Cannabinoid receptor 1 [8]) is reported as > 32 µM (inactive), the IC50 (Cannabinoid receptor 1 [9]) is reported as 3.63 µM (active) and the IC50 [10] is reported as 23 µM (inactive). For the same molecule, the EC50 [11] was > 32 µM (inactive), the EC50 (Cannabinoid receptor 2 [12]) was > 32 µM (inactive) and the IC50 (Cannabinoid receptor 2 [13]) was > 32 µM (inactive). The IC50 [14] was 1.77 µM (active).
With `Cc1ccc(/C=N/NC(=O)CSc2nnc(-c3ccccc3)n2-c2ccc(Cl)cc2)o1` the EC50 [15] was > 100 µM (inactive).
